In patent US11254663B2 (BRISTOL-MYERS SQUIBB COMPANY, priority 2019, dated 2022) one finds EC50 data, which are given here for 24 molecules.

The EC50 is the midpoint of the concentration-response curve.

In this assay the target is FXR (Homo sapiens (Human), UniProt Q96RI1). The experiment in a line: FXR EC50 (FXR agonist potency reported with each Example). Type of assay: cell-based.
FXR, sequence (Q96RI1 262-486): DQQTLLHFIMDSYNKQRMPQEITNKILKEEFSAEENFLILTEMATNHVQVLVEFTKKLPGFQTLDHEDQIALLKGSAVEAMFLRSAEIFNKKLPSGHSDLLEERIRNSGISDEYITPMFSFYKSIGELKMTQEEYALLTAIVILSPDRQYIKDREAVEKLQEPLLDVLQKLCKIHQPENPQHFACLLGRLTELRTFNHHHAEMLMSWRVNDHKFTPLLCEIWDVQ
In the case of `CC(C)(C)c1nc(C23CCC(CN(C(=O)C45CC(F)(C4)C5)c4cc(-c5cnn(C(F)F)c5)ccn4)(CC2)CC3)no1` [Example 212, N-((4-(5-(tert-butyl)-1,2,4-oxadiazol-3-yl)bicyclo[2.2.2]octan-1-yl)methyl)-N-(4-(1-(difluoromethyl)-1H-pyrazol-4-yl)pyridin-2-yl)-3-fluorobicyclo[1.1.1]pentane-1-carboxamide], a half-maximal response (EC50) required 11 nM.

In the case of `Cn1cc(-c2cccc(N(CC34CCC(c5nc(C6CC6)no5)(CC3)CC4)C(=O)C3CC(F)(F)C3)c2)nc1C1CC1` [Example 131, N-((4-(3-cyclopropyl-1,2,4-oxadiazol-5-yl)bicyclo[2.2.2]octan-1-yl)methyl)-N-(3-(2-cyclopropyl-1-methyl-1H-imidazol-4-yl)phenyl)-3,3-difluorocyclobutane-1-carboxamide], the EC50 is 1440 nM. In the case of `Cn1nc(-c2cccc(N(CC34CCC(c5nc(C6CC6)no5)(CC3)CC4)C(=O)C3CCC(F)(F)C3)c2)cc1C1CC1` (stereo not drawn) [Example 77, N-((4-(3-cyclopropyl-1,2,4-oxadiazol-5-yl)bicyclo[2.2.2]octan-1-yl)methyl)-N-(3-(5-cyclopropyl-1-methyl-1H-pyrazol-3-yl)phenyl)-3,3-difluorocyclopentane-1-carboxamide] it was 429 nM. In turn, `O=C(C1CC(F)(F)C1)N(CC12CCC(c3nc(C4CC4)no3)(CC1)CC2)c1cccc(-c2cnc(C3CC3)o2)c1` [Example 22, N-((4-(3-cyclopropyl-1,2,4-oxadiazol-5-yl)bicyclo[2.2.2]octan-1-yl)methyl)-N-(3-(2-cyclopropyloxazol-5-yl)phenyl)-3,3-difluorocyclobutane-1-carboxamide] displayed an EC50 of 133 nM. Molecule `O=C(N(CC12CCC(c3nc(C4CC4)no3)(CC1)CC2)c1cccc(-c2noc(C3(O)CC3)n2)c1)C12CC(F)(C1)C2` [Example 110, N-((4-(3-cyclopropyl-1,2,4-oxadiazol-5-yl)bicyclo[2.2.2]octan-1-yl)methyl)-3-fluoro-N-(3-(5-(1-hydroxycyclopropyl)-1,2,4-oxadiazol-3-yl)phenyl)bicyclo[1.1.1]pentane-1-carboxamide] yielded an EC50 of 88 nM.

Regarding `O=C(C1CCC(F)(F)C1)N(CC12CCC(c3nc(C4CC4)no3)(CC1)CC2)c1cccc(-c2cc(C3CC3)on2)c1` (stereo not drawn) [Example 59, N-((4-(3-cyclopropyl-1,2,4-oxadiazol-5-yl)bicyclo[2.2.2]octan-1-yl)methyl)-N-(3-(5-cyclopropylisoxazol-3-yl)phenyl)-3,3-difluorocyclopentane-1-carboxamide], the EC50 amounted to 70 nM. In the case of `CCOC(=O)c1coc(-c2cccc(N(CC34CCC(c5nc(C6CC6)no5)(CC3)CC4)C(=O)C34CC(F)(C3)C4)c2)n1` [Example 13, Ethyl 2-(3-(N-((4-(3-cyclopropyl-1,2,4-oxadiazol-5-yl)bicyclo[2.2.2]octan-1-yl)methyl)-3-fluorobicyclo[1.1.1]pentane-1-carboxamido)phenyl)oxazole-4-carboxylate], the midpoint of the response, the EC50, lay at 512 nM. Regarding `CCOC(=O)c1coc(-c2cccc(N(CC34CCC(c5nc(C)no5)(CC3)CC4)C(=O)C34CC(F)(C3)C4)c2)n1` [Example 12, Ethyl 2-(3-(3-fluoro-N-((4-(3-methyl-1,2,4-oxadiazol-5-yl)bicyclo[2.2.2]octan-1-yl)methyl)bicyclo[1.1.1]pentane-1-carboxamido)phenyl)oxazole-4-carboxylate], the EC50 was 1710 nM. Consider `O=C(C1CC(C(F)F)C1)N(CC12CCC(c3nnc(C4CC4)o3)(CC1)CC2)c1cccc(-c2nnc(C3CC3)o2)c1` (stereo not drawn) [Example 134, N-((4-(5-cyclopropyl-1,3,4-oxadiazol-2-yl)bicyclo[2.2.2]octan-1-yl)methyl)-N-(3-(5-cyclopropyl-1,3,4-oxadiazol-2-yl)phenyl)-3-(difluoromethyl)cyclobutane-1-carboxamide], for which the 50% effective concentration (EC50) was determined as 636 nM. With `Cn1cc(-c2cccc(N(CC34CCC(c5nc(C6CC6)no5)(CC3)CC4)C(=O)C34CC(F)(C3)C4)c2)nc1C1CC1` [Example 130, N-((4-(3-cyclopropyl-1,2,4-oxadiazol-5-yl)bicyclo[2.2.2]octan-1-yl)methyl)-N-(3-(2-cyclopropyl-1-methyl-1H-imidazol-4-yl)phenyl)-3-fluorobicyclo[1.1.1]pentane-1-carboxamide] the figure was 585 nM; with `Cc1cc(C23CCC(CN(C(=O)C4CCC(F)(F)C4)c4cccc(-c5nc(C6CC6)no5)c4)(CC2)CC3)ccn1` (stereo not drawn) [Example 33, N-(3-(3-cyclopropyl-1,2,4-oxadiazol-5-yl)phenyl)-3,3-difluoro-N-((4-(2-methylpyridin-4-yl)bicyclo[2.2.2]octan-1-yl)methyl)cyclopentane-1-carboxamide], 4320 nM; with `N#CC1(c2ccc(C34CCC(CN(C(=O)C5CC(C(F)F)C5)c5cccc(-c6nnc(C7CC7)o6)c5)(CC3)CO4)cc2)CC1` (stereo not drawn) [Example 144, N-((1-(4-(1-Cyanocyclopropyl)phenyl)-2-oxabicyclo[2.2.2]octan-4-yl)methyl)-N-(3-(5-cyclopropyl-1,3,4-oxadiazol-2-yl)phenyl)-3-(difluoromethyl)cyclobutane-1-carboxamide], 2160 nM. With `COC(C)(C)c1coc(-c2cccc(N(CC34CCC(c5nc(C6CC6)no5)(CC3)CC4)C(=O)C34CC(F)(C3)C4)c2)n1` [Example 79, N-((4-(3-cyclopropyl-1,2,4-oxadiazol-5-yl)bicyclo[2.2.2]octan-1-yl)methyl)-3-fluoro-N-(3-(4-(2-methoxypropan-2-yl)oxazol-2-yl)phenyl)bicyclo[1.1.1]pentane-1-carboxamide] the figure was 194 nM; with `COc1nccc(C23CCC(CN(C(=O)C45CC(F)(C4)C5)c4cccc(-c5nc(C6CC6)no5)c4)(CC2)CC3)n1` [Example 148, N-(3-(3-cyclopropyl-1,2,4-oxadiazol-5-yl)phenyl)-3-fluoro-N-((4-(2-methoxypyrimidin-4-yl)bicyclo[2.2.2]octan-1-yl)methyl)bicyclo[1.1.1]pentane-1-carboxamide], 687 nM; with `CC(C)(C)CNC(=O)N(CC12CCC(c3nc(C4CC4)no3)(CC1)CC2)c1cccc(-c2nc(C3CC3)no2)c1` [Example 92, 1-((4-(3-cyclopropyl-1,2,4-oxadiazol-5-yl)bicyclo[2.2.2]octan-1-yl)methyl)-1-(3-(3-cyclopropyl-1,2,4-oxadiazol-5-yl)phenyl)-3-neopentylurea], 420 nM. With `CC1(c2nc(C34CCC(CN(C(=O)C56CC(F)(C5)C6)c5cccc(-c6nc(C7CC7)no6)c5)(CC3)CC4)no2)CC1` [Example 115, N-(3-(3-cyclopropyl-1,2,4-oxadiazol-5-yl)phenyl)-3-fluoro-N-((4-(5-(1-methylcyclopropyl)-1,2,4-oxadiazol-3-yl)bicyclo[2.2.2]octan-1-yl)methyl) bicyclo[1.1.1]pentane-1-carboxamide] the figure was 35 nM. Molecule `CC(C)(C)c1nc(C23CCC(CN(C(=O)C45CC(F)(C4)C5)c4cccc(-c5cnn(S(=O)(=O)C6CC6)c5)c4)(CC2)CC3)no1` [Example 195, N-((4-(5-(tert-butyl)-1,2,4-oxadiazol-3-yl)bicyclo[2.2.2]octan-1-yl)methyl)-N-(3-(1-(cyclopropylsulfonyl)-1H-pyrazol-4-yl)phenyl)-3-fluorobicyclo[1.1.1]pentane-1-carboxamide] yielded an EC50 of 20 nM. `CCOc1cc(-c2cccc(N(CC34CCC(c5nc(C6CC6)no5)(CC3)CC4)C(=O)C34CC(F)(C3)C4)c2)ccn1` [Example 226, N-((4-(3-cyclopropyl-1,2,4-oxadiazol-5-yl)bicyclo[2.2.2]octan-1-yl)methyl)-N-(3-(2-ethoxypyridin-4-yl)phenyl)-3-fluorobicyclo[1.1.1]pentane-1-carboxamide] displayed an EC50 of 219 nM. `CCCc1ncc(-c2cccc(N(CC34CCC(c5nc(C6CC6)no5)(CC3)CC4)C(=O)C3CC(C(F)F)C3)c2)o1` (stereo not drawn) [Example 28, N-((4-(3-cyclopropyl-1,2,4-oxadiazol-5-yl)bicyclo[2.2.2]octan-1-yl)methyl)-3-(difluoromethyl)-N-(3-(2-propyloxazol-5-yl)phenyl)cyclobutane-1-carboxamide] gave an EC50 of 248 nM. In the case of `CS(=O)(=O)n1cc(-c2cccc(N(CC34CCC(c5nc(C6CC6)no5)(CC3)CC4)C(=O)C34CC(F)(C3)C4)c2)cn1` [Example 159, N-((4-(3-cyclopropyl-1,2,4-oxadiazol-5-yl)bicyclo[2.2.2]octan-1-yl)methyl)-3-fluoro-N-(3-(1-(methylsulfonyl)-1H-pyrazol-4-yl)phenyl)bicyclo[1.1.1]pentane-1-carboxamide], the EC50 was determined as 73 nM. `CC(C)(O)c1coc(-c2cccc(N(CC34CCC(c5nc(C6CC6)no5)(CC3)CC4)C(=O)C3CC(F)(F)C3)c2)n1` [Example 16, N-((4-(3-cyclopropyl-1,2,4-oxadiazol-5-yl)bicyclo[2.2.2]octan-1-yl)methyl)-3,3-difluoro-N-(3-(4-(2-hydroxypropan-2-yl)oxazol-2-yl)phenyl)cyclobutane-1-carboxamide]: the EC50 worked out at 318 nM.

For `CC(N(C(=O)C12CC(F)(C1)C2)c1cccc(-c2cnc(C3CC3)o2)c1)C12CCC(c3nc(C4CC4)no3)(CC1)CC2` (single isomer, unassigned) [Example 215, N-(1-(4-(3-cyclopropyl-1,2,4-oxadiazol-5-yl)bicyclo[2.2.2]octan-1-yl)ethyl)-N-(3-(2-cyclopropyloxazol-5-yl)phenyl)-3-fluorobicyclo[1.1.1]pentane-1-carboxamide], a half-maximal effect (EC50) was put at 269 nM.

In the case of `CC(C)(C)c1nc(-c2cccc(N(CC34CCC(c5ccc(C(F)(F)F)cn5)(CC3)CC4)C(=O)C34CC(F)(C3)C4)c2)no1` [Example 188, N-(3-(5-(tert-butyl)-1,2,4-oxadiazol-3-yl)phenyl)-3-fluoro-N-((4-(5-(trifluoromethyl)pyridin-2-yl)bicyclo[2.2.2]octan-1-yl)methyl)bicyclo[1.1.1]pentane-1-carboxamide], it took 304 nM to reach a half-maximal effect (EC50). With `O=C(N(CC12CCC(c3nc(C4CC4)no3)(CC1)OC2)c1cccc(-c2nc(C3CC3)no2)c1)C12CC(F)(C1)C2` [Example 196, N-((1-(3-cyclopropyl-1,2,4-oxadiazol-5-yl)-2-oxabicyclo[2.2.2]octan-4-yl)methyl)-N-(3-(3-cyclopropyl-1,2,4-oxadiazol-5-yl)phenyl)-3-fluorobicyclo[1.1.1]pentane-1-carboxamide] the figure was 205 nM.
